From US20080267932A1, “Lactobacillus Rhamnosus with Body-Fat Reducing Activity and the Foods Containing Them” (priority 2004, published 2008)

What was measured:
[1] = test system: Lactobacillus rhamnosus Strain PL60; experiment: Antibiotic resistance (diameter of growth inhibition); format: cell-based; settings: antibiotic against Lactobacillus rhamnosus Strain PL60
CLA production from LA = settings: reported strains, for comparison; cited from earlier work
overweight people = settings: cited from earlier work

Compound | Diameter(mm) of growth inhibition [1] | further results
CC1(C)S[C@@H]2[C@H](NC(=O)[C@H](N)c3ccccc3)C(=O)N2[C@H]1C(=O)O [Ampicillin] | 21 mm | 
CC1(C)S[C@@H]2[C@H](NC(=O)C(C(=O)O)c3ccccc3)C(=O)N2[C@H]1C(=O)O (stereo partly shown) [Carbenicillin] | 25 mm | 
CCN1CCN(C(=O)N[C@@H](C(=O)N[C@@H]2C(=O)N3C(C(=O)O)=C(CSc4nnnn4C)CS[C@H]23)c2ccc(O)cc2)C(=O)C1=O [Cefoperazone] | 22 mm | 
CC(=O)OCC1=C(C(=O)O)N2C(=O)[C@@H](NC(=O)Cc3cccs3)[C@H]2SC1 [Cephalothin] | 20 mm | 
O=C(N[C@H](CO)[C@H](O)c1ccc([N+](=O)[O-])cc1)C(Cl)Cl [Chloramphenicol] | 24 mm | 
CCC[C@@H]1C[C@@H](C(=O)N[C@@H]([C@H]2O[C@H](SC)[C@H](O)[C@@H](O)[C@H]2O)[C@H](C)Cl)N(C)C1 [Clindamycin] | 26 mm | 
CC[C@H]1OC(=O)[C@H](C)[C@@H](O[C@H]2C[C@@](C)(OC)[C@@H](O)[C@H](C)O2)[C@H](C)[C@@H](O[C@@H]2O[C@H](C)C[C@H](N(C)C)[C@H]2O)[C@](C)(O)C[C@@H](C)C(=O)[C@H](C)[C@@H](O)[C@]1(C)O [Erythromycin] | 28 mm | 
Cc1onc(-c2ccccc2)c1C(=O)N[C@@H]1C(=O)N2[C@@H]1SC(C)(C)[C@@H]2C(=O)O [Oxacillin] | 8 mm | 
CCN1CCN(C(=O)N[C@@H](C(=O)N[C@@H]2C(=O)N3[C@@H]2SC(C)(C)[C@@H]3C(=O)O)c2ccccc2)C(=O)C1=O [Piperacilin] | 30 mm | 
CO[C@H]1/C=C/O[C@@]2(C)Oc3c(C)c(O)c4c(O)c(c(/C=N/N5CCN(C)CC5)c(O)c4c3C2=O)NC(=O)/C(C)=C\C=C\[C@H](C)[C@H](O)[C@@H](C)[C@@H](O)[C@@H](C)[C@H](OC(C)=O)[C@@H]1C [Rifampin] | 24 mm | 
[H]/N=C(/N)N[C@H]1[C@H](O)[C@@H](O)[C@H](O[C@@H]2O[C@@H](C)[C@](O)(C=O)[C@H]2O[C@@H]2O[C@@H](CO)[C@H](O)[C@@H](O)[C@@H]2NC)[C@@H](N/C(N)=N\[H])[C@@H]1O [Streptomycin] | 11 mm | 
CN(C)[C@@H]1C(O)=C(C(N)=O)C(=O)[C@@]2(O)C(O)=C3C(=O)c4c(O)cccc4[C@@](C)(O)[C@H]3C[C@@H]12 [Tetracycline] | 29 mm | 
CN[C@H](CC(C)C)C(=O)N[C@H]1C(=O)N[C@@H](CC(N)=O)C(=O)N[C@H]2C(=O)N[C@H]3C(=O)N[C@H](C(=O)N[C@H](C(=O)O)c4cc(O)cc(O)c4-c4cc3ccc4O)[C@H](O)c3ccc(c(Cl)c3)Oc3cc2cc(c3O[C@@H]2O[C@H](CO)[C@@H](O)[C@H](O)[C@H]2O[C@H]2C[C@](C)(N)[C@H](O)[C@H](C)O2)Oc2ccc(cc2Cl)[C@H]1O [Vancomycin] | 6 mm | 
Gentamicin | 10 mm | 
Lactobacillus reuteri |  | yield of t10c12 CLA (CLA production from LA): 30 ppm
Penicillin | 25 mm | 
Trimethpprime/sulfamethoxasole | 6 mm | 
conjugated linoleic acid [CLA] |  | weight loss (overweight people; 180 overweight people, administered for one year): 4-10%; side effects (overweight people; in vivo): without side effects
